pIC50: −log10 of the molar value. Active and inactive are the calls of the source. No cut-off for these calls is given here.
Columns and labels:
[1] = biological target: Hepatocyte growth factor receptor (Homo sapiens) (UniProt P08581); assay: Inhibition of c-Met (unknown origin) at 10 uM assessed as residual enzyme activity
[2] = biological target: Cyclin-dependent kinase 5/CDK5 activator 1 (Homo sapiens) (UniProt Q00535+Q15078); assay: Inhibition of CDK5/p35 (unknown origin) at 10 uM assessed as residual enzyme activity; type: protein-complex assay
[3] = biological target: Aurora kinase A (Homo sapiens) (UniProt O14965); assay: Inhibition of Aurora A (unknown origin) at 10 uM assessed as residual enzyme activity
[4] = biological target: Serine/threonine-protein kinase A-Raf (Homo sapiens) (UniProt P10398); assay: Inhibition of ARAF (unknown origin) at 10 uM assessed as residual enzyme activity
[5] = biological target: Mitogen-activated protein kinase kinase kinase 5 (Homo sapiens) (UniProt Q99683); assay: Inhibition of ASK1 (unknown origin) at 10 uM assessed as residual enzyme activity
[6] = biological target: RAC-alpha serine/threonine-protein kinase (Homo sapiens) (UniProt P31749); assay: Inhibition of AKT1 (unknown origin) at 10 uM assessed as residual enzyme activity
[7] = biological target: ALK tyrosine kinase receptor (Homo sapiens) (UniProt Q9UM73); assay: Inhibition of ALK (unknown origin) at 10 uM assessed as residual enzyme activity
[8] = biological target: Receptor-type tyrosine-protein kinase FLT3 (Homo sapiens, UniProt P36888); assay: Inhibition of FLT3 (unknown origin) by kinase hot spot assay
[9] = tested on: HL-60; assay: Cytotoxicity against human HL60 cells assessed as cell growth inhibition after 24 hrs by WST1 assay; type: functional, cell-based
[10] = tested on: HL-60; assay: Inhibition of STAT5 phosphorylation in human HL60 cells at 0.1 to 10 uM after 12 hrs by Western blot method; type: cell-based
[11] = biological target: Receptor-type tyrosine-protein kinase FLT3 (Homo sapiens) (UniProt P36888); assay: Inhibition of FLT3 in human MV4-11 cells assessed as reduction in STAT5 phosphorylation after 12 hrs by Western blot method; type: cell-based
[12] = tested on: MV4-11; assay: Induction of apoptosis in human MV4-11 cells assessed as increase in cleaved caspase-3 level at 0.1 to 10 uM after 12 hrs by Western blot method; type: functional, cell-based
[13] = tested on: MV4-11; assay: Induction of apoptosis in human MV4-11 cells assessed as caspase 3 cleavage at 0.1 to 10 uM after 12 hrs by Western blot method; type: functional, cell-based
[14] = tested on: MV4-11; assay: Induction of apoptosis in human MV4-11 cells assessed as PARP cleavage at 0.1 to 10 uM after 12 hrs by Western blot method; type: functional, cell-based
[15] = tested on: MV4-11; assay: Cytotoxicity against human MV4-11 cells assessed as cell growth inhibition after 24 hrs by WST1 assay; type: functional, cell-based
[16] = Cytotoxicity against human U87MG cells assessed as cell viability at 1 uM after 24 hrs by WST1 assay; type: functional, U-87MG ATCC; settings: U-87 MG, read-out: Activity
[17] = tested on: MDA-MB-231; assay: Cytotoxicity against human MDA-MB-231 cells assessed as cell viability at 1 uM after 24 hrs by WST1 assay; type: functional; settings: MDA-MB-231, 24 h, read-out: Activity
[18] = tested on: MCF7; assay: Cytotoxicity against human MCF7 cells assessed as cell viability at 1 uM after 24 hrs by WST1 assay; type: functional; settings: MCF7, 24 h, read-out: Activity
[19] = biological target: Mitogen-activated protein kinase 8 (Homo sapiens) (UniProt P45983); assay: Inhibition of JNK1 (unknown origin) at 10 uM assessed as residual enzyme activity
[20] = biological target: Insulin receptor (Homo sapiens) (UniProt P06213); assay: Inhibition of IR (unknown origin) at 10 uM assessed as residual enzyme activity
[21] = biological target: Tyrosine-protein kinase JAK1 (Homo sapiens) (UniProt P23458); assay: Inhibition of JAK1 (unknown origin) at 10 uM assessed as residual enzyme activity
[22] = biological target: Fibroblast growth factor receptor 1 (Homo sapiens) (UniProt P11362); assay: Inhibition of FGFR1 (unknown origin) at 10 uM assessed as residual enzyme activity
[23] = biological target: Vascular endothelial growth factor receptor 3 (Homo sapiens) (UniProt P35916); assay: Inhibition of VEGFR3 (unknown origin) at 10 uM assessed as residual enzyme activity
[24] = biological target: Leukocyte tyrosine kinase receptor (Homo sapiens) (UniProt P29376); assay: Inhibition of LTK (unknown origin) at 10 uM assessed as residual enzyme activity
[25] = biological target: Vascular endothelial growth factor receptor 2 (Homo sapiens) (UniProt P35968); assay: Inhibition of VEGFR2 (unknown origin) at 10 uM assessed as residual enzyme activity
[26] = biological target: Vascular endothelial growth factor receptor 1 (Homo sapiens) (UniProt P17948); assay: Inhibition of VEGFR1 (unknown origin) at 10 uM assessed as residual enzyme activity
[27] = biological target: Proto-oncogene tyrosine-protein kinase receptor Ret (Homo sapiens) (UniProt P07949); assay: Inhibition of RET (unknown origin) at 10 uM assessed as residual enzyme activity
[28] = biological target: Serine/threonine-protein kinase PLK1 (Homo sapiens) (UniProt P53350); assay: Inhibition of PLK1 (unknown origin) at 10 uM assessed as residual enzyme activity
[29] = biological target: Protein kinase C alpha type (Homo sapiens) (UniProt P17252); assay: Inhibition of PKCalpha (unknown origin) at 10 uM assessed as residual enzyme activity
[30] = species: Homo sapiens; assay: Inhibition of PKA (unknown origin) at 10 uM assessed as residual enzyme activity
[31] = biological target: Mitogen-activated protein kinase 11 (Homo sapiens) (UniProt Q15759); assay: Inhibition of P38beta (unknown origin) at 10 uM assessed as residual enzyme activity
[32] = biological target: Tyrosine-protein kinase Lyn (Homo sapiens) (UniProt P07948); assay: Inhibition of LYN (unknown origin) at 10 uM assessed as residual enzyme activity
[33] = biological target: Tyrosine-protein kinase Lck (Homo sapiens) (UniProt P06239); assay: Inhibition of LCK (unknown origin) at 10 uM assessed as residual enzyme activity
[34] = biological target: Platelet-derived growth factor receptor beta (Homo sapiens) (UniProt P09619); assay: Inhibition of PDGFRbeta (unknown origin) at 10 uM assessed as residual enzyme activity
[35] = biological target: Platelet-derived growth factor receptor alpha (Homo sapiens) (UniProt P16234); assay: Inhibition of PDGFRalpha (unknown origin) at 10 uM assessed as residual enzyme activity
[36] = biological target: Focal adhesion kinase 1 (Homo sapiens) (UniProt Q05397); assay: Inhibition of FAK (unknown origin) at 10 uM assessed as residual enzyme activity
[37] = biological target: Mitogen-activated protein kinase 1 (Homo sapiens) (UniProt P28482); assay: Inhibition of ERK2 (unknown origin) at 10 uM assessed as residual enzyme activity
[38] = biological target: Mitogen-activated protein kinase 3 (Homo sapiens) (UniProt P27361); assay: Inhibition of ERK1 (unknown origin) at 10 uM assessed as residual enzyme activity
[39] = tested on: RAF proto-oncogene serine/threonine-protein kinase; assay: Inhibition of Raf1 (unknown origin) at 10 uM assessed as residual enzyme activity; settings: Homo sapiens

Chain of Receptor-type tyrosine-protein kinase FLT3 (P36888 whole entry): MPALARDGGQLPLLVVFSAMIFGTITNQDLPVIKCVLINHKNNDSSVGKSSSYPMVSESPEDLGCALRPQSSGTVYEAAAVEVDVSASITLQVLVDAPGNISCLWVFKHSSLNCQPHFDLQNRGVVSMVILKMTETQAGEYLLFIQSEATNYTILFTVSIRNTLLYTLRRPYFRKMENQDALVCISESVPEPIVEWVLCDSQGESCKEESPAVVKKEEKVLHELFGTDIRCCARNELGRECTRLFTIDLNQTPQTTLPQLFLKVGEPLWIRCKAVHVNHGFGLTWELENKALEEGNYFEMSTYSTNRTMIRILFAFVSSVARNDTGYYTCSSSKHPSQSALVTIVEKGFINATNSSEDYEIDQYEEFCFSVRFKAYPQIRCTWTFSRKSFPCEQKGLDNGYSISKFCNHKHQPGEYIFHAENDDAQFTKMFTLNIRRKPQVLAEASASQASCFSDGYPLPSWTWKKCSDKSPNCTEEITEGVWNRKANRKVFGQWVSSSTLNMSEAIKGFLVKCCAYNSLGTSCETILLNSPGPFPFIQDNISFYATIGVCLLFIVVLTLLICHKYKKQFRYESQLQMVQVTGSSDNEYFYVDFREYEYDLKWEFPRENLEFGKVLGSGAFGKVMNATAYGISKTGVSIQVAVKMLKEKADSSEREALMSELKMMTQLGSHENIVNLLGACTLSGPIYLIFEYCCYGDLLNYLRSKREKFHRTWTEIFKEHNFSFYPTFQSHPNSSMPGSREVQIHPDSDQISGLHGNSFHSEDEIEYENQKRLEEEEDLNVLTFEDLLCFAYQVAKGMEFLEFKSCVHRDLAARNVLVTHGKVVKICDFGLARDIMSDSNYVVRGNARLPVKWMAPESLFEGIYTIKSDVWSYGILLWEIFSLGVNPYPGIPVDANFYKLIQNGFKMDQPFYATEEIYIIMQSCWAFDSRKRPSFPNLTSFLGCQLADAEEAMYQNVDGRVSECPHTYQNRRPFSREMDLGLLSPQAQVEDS
Chain of Receptor-type tyrosine-protein kinase FLT3 (Homo sapiens) (P36888 whole entry): as above
Chain of RAC-alpha serine/threonine-protein kinase (Homo sapiens) (P31749 whole entry): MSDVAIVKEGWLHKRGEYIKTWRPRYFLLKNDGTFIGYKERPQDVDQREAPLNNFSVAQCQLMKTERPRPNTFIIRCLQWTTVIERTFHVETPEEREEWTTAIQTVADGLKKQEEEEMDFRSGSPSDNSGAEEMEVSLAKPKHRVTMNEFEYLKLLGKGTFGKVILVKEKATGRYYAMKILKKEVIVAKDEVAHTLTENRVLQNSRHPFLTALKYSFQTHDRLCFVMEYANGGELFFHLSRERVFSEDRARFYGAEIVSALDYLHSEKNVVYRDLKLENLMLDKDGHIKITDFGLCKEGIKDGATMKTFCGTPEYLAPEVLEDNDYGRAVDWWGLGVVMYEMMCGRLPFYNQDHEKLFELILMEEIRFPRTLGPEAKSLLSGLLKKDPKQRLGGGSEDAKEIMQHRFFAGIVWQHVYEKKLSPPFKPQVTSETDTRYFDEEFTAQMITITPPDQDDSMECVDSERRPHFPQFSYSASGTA
Chain of Hepatocyte growth factor receptor (Homo sapiens) (P08581 whole entry): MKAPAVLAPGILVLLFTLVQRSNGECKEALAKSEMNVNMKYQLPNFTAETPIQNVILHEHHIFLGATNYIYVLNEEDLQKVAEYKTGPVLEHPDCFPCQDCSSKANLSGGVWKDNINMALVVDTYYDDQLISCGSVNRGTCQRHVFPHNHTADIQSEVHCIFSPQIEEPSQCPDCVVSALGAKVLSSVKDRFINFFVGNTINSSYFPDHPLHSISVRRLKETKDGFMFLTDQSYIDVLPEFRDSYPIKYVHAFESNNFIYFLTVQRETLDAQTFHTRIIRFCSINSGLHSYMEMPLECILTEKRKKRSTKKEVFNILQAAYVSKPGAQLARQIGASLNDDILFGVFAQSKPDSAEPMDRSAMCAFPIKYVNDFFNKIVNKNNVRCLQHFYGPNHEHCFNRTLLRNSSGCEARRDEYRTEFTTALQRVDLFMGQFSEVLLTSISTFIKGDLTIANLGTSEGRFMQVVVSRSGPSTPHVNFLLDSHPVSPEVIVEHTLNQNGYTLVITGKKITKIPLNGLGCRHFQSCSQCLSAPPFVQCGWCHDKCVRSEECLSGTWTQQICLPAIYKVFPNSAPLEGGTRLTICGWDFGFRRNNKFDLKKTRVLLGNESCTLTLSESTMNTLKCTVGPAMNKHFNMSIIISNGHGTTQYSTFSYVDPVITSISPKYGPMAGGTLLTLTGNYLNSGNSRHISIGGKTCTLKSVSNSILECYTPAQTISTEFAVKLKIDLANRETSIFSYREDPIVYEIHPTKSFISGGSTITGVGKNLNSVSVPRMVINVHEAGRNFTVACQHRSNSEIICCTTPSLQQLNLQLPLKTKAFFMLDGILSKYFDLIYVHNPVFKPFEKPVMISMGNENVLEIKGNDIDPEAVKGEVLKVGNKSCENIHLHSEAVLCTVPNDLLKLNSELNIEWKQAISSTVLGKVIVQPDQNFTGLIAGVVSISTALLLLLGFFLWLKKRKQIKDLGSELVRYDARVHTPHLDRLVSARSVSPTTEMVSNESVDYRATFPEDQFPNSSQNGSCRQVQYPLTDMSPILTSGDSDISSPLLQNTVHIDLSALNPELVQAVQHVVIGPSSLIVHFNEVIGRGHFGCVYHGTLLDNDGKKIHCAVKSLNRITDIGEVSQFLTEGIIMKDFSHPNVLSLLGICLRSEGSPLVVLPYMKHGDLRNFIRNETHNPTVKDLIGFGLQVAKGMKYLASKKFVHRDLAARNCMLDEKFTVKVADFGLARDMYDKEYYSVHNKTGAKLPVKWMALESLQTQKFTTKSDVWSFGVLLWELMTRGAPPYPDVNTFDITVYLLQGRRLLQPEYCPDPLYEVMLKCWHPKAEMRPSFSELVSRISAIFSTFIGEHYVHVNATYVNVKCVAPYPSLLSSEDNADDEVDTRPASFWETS
Chain of Serine/threonine-protein kinase PLK1 (Homo sapiens) (P53350 whole entry): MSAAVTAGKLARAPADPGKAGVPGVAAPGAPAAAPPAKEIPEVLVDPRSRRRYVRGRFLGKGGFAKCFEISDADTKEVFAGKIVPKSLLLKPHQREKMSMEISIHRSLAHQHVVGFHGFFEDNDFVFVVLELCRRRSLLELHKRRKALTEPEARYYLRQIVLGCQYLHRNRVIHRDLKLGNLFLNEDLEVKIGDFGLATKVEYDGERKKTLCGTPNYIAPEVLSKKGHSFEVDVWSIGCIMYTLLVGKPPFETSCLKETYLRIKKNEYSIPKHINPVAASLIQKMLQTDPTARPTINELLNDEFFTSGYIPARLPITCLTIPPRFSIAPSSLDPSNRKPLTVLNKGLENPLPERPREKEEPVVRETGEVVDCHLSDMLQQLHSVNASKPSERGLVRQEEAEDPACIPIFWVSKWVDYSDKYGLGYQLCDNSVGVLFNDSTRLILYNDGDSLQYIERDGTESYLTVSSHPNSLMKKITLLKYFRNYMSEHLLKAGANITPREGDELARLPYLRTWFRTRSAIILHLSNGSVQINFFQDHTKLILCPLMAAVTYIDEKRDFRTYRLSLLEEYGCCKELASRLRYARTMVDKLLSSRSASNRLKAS
Chain of Mitogen-activated protein kinase 1 (Homo sapiens) (P28482 whole entry): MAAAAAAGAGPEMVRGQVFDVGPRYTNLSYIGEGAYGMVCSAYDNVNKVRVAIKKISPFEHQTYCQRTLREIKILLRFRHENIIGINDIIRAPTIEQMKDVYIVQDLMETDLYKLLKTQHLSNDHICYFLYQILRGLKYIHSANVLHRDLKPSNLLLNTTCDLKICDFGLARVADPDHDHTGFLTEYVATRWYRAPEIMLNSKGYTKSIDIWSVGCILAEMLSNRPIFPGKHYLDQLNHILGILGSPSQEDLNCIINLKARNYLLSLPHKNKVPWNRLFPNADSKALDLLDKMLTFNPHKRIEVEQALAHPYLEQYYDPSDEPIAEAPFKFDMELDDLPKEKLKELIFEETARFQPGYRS
Chain of Cyclin-dependent kinase 5/CDK5 activator 1 (Homo sapiens) (Q00535 whole entry): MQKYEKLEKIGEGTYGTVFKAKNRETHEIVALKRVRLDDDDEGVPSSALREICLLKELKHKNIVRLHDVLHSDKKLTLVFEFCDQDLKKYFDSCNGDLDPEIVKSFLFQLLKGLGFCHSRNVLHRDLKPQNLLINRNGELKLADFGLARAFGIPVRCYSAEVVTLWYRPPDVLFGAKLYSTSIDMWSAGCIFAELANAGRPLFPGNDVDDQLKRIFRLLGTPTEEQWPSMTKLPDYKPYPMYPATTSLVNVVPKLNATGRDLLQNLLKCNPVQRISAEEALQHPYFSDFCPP
Chain of Cyclin-dependent kinase 5/CDK5 activator 1 (Homo sapiens) (Q15078 99-307 partner limits assumed): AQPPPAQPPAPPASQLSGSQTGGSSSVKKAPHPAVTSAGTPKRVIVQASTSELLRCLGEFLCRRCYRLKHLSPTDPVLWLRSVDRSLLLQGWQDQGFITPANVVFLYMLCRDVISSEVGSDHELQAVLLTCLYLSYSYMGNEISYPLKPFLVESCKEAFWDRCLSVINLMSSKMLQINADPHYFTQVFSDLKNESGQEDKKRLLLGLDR

Activity [1]: 118%
Activity [2]: 87.2%
Activity [3]: 87.7%
Activity [4]: 77%
Activity [5]: 97.8%
Activity [6]: 93.6%
Activity [7]: 96.5%
pIC50 [8]: 5.89
inhibition [11]: Dose-dependent effect
Activity [19]: 101%
Activity [20]: 95%
Activity [21]: 103%
Activity [22]: 90.1%
Activity [23]: 101%
Activity [24]: 92.9%
Activity [25]: 98.6%
Activity [26]: 90%
Activity [27]: 83.3%
Activity [28]: 108%
Activity [29]: 84.5%
Activity [30]: 93%
Activity [31]: 97.8%
Activity [32]: 86.6%
Activity [33]: 95.2%
Activity [34]: 96.3%
Activity [35]: 93.8%
Activity [36]: 96.8%
Activity [37]: 94%
Activity [38]: 95.4%
Activity [39]: 94.9%
SMILES: COc1ccc(-c2n[nH]c3ncc(-c4ccc(Cl)cc4N)cc23)cc1
growth inhibition (GI) [9]: inactive
inhibition [10]: inactive
Activity [12]: Dose-dependent effect
Activity [13]: Active
Activity [14]: Active
growth inhibition (GI) [15]: Dose-dependent effect
pIC50 ([15]; MV4-11, 24 h): 6.23
viability at 1 µM [16]: 89%
viability at 1 µM [17]: 84%
viability at 1 µM [18]: 86%

From ChEMBL document CHEMBL3217737, “Discovery of a highly selective FLT3 kinase inhibitor from phenotypic cell viability profiling” (Medchemcomm, 2013)
